Test results from patent US9737502B2, “Calebin A for hepatic steatosis” (SAMI LABS LIMITED, priority 2011, dated 2017).

Experiments:
3T3-L1 cells = test: Oil Red-O staining of adipogenic cultures (adipogenesis inhibition); assay type: cell-based, mouse
Description: Terminal differentiation of adipocytes is accompanied by the accumulation of great amounts of lipids in large cytoplasmic vesicles. A common assay to measure adipocyte differentiation in cell culture is with the dye Oil Red-O (ORO). ORO is a lipid-soluble bright red dye which is a reliable indicator of adipocyte differentiation (adipogenesis).
(§1) 3T3-L1 cells approximately 60×10^4 cells are seeded for 48-72 hrs to get 70-80% confluence. After 48 hrs 200 μl of AIM (Adipogenesis induction medium) freshly prepared is added. 72 hrs later 200 μl APM (Adipogenesis progression medium) with the test compounds in different concentrations is added to the wells. The cells are incubated for 48 hrs in a humidified atmosphere (37° C.) of 5% CO2 and 95% air. The supernatant is collected and stored for the estimation of leptin, adiponectin, IL-6 and TNF-α by ELISA. Cells are fixed by adding 100 μl of 10% formalin and ORO staining is done. OD is read at 492 nm in microplate reader. The results are expressed as IC50 values using Graphpad prism software.
(§2) The percentage of inhibition of adipogenesis is calculated as follows, % inhibition=C−T/[…] Where C-absorbance of Oil red 0 in differentiating/undifferentiated cells T-absorbance of Oil Red-O in sample treated differentiating/undifferentiated cells. The estimation of leptin, adiponectin, IL-6 and TNF-α is done according to user's manual from R&D Systems.

leptin = test: Estimation of leptin in adipocyte supernatant by ELISA; assay type: cell-based; conditions: human adipocytes
Description: as §1, §2

IL-6 = test: Estimation of IL-6 in adipocyte supernatant by ELISA; assay type: cell-based; conditions: human adipocytes
Description: as §1, §2

IL-1β = test: Extracellular IL-1β in LPS-stimulated murine neutrophils; assay type: cell-based; conditions: for IL-1β Concentration: LPS Control 51.80 ± 2.18
IL-1 beta = test: Serum IL-1 beta in LPS-injected mice after 6 days oral treatment (ELISA); assay type: in vivo, Swiss albino mice; conditions: graded doses, then LPS 1 mg/kg i.v., serum 90 min after LPS
Description: The present inventors also adduce study data on the ability of Calebin A to reduce expression of Extracellular TNF-α, IL-1 beta [FIG. 6] and IL-6 [FIG. 7] in serum from treated mice (in-vivo models). Swiss albino male mice aged 6-8 weeks were maintained at 22±2° C. under 12/12 h light dark cycle. Mice received oral treatment of test drugs at graded doses (w/v) for 6 days, followed by intravenous injection of 1 mg/kg of LPS according to the method described by Brieva A, Guerrero A, Alonso-Lebrero J L and Pivel J P. 2001. Immunoferon, a glycoconjugate of natural origin, inhibits LPS-induced TNF-α production and inflammatory responses. International Immunopharmacology 1, 1979-1987. Six mice were employed in each group and experiments were performed in triplicates. TNF-α, IL-1 beta and IL-6 production was evaluated by a commercial ELISA kits (R&D Systems) in serum from treated mice, 90 min after LPS injection. Rolipram at 30 mg/kg was used as standard drug.

[1] = tested on: HFD induced hepatic steatosis; test: Liver histopathology and hepatic triglyceride in HFD-fed mice; assay type: in vivo, C57BL/6J mice; conditions: Calebin A 0.25% and 1% in HFD, dose dependant
Description: A portion of the livers in different groups were dissected and fixed in 10% buffered formalin for at least 24 hours, then dehydrated with a sequence of ethanol solutions and processed for embedding in paraffin. Sections of 5-6 μm in thickness were cut, deparaffinized, rehydrated, stained with haematoxylin & eosin (H&E) and subjected to pbotomicroscopic assessment. Liver histopathology was evaluated according to the NAFLD system outlined in Kleiner, D. E., Brunt, E. M., Van, N. M., Behling, C. et al., Design and validation of a histological scoring system for nonalcoholic fatty liver disease. Hepatology 2005, 41, 1313-1321. The score of hepatocellular ballooning was graded 0-2 based on the number of balloon cell per field at ×200 magnification (grading: 0=no balloon cell; 1=few balloon cells; 2=prominent balloon cells) in H&E stained sections. The number of infiltrating immune cells was counted at 200× magnification in five different areas. In the HFD group significant inflammatory degeneration, hepatocellular ballooning degeneration and triglyceride accumulation were seen. Quantitative analysis indicated elevated hepatic triglyceride levels as compared to the ND group. Administration of Calebin A at concentrations of 0.25% and 1% attenuated HFD induced triglyceride, hepatocellular ballooning degeneration and inflammatory infiltration in a dose dependant manner. Accordingly, in another most preferred embodiment, the present invention relates to a method of treating high fat diet (HFD) induced hepatic steatosis in mammals, said method comprising step of bringing into contact HFD affected hepatic cells marked by inflammatory infiltration, hepatocellular ballooning degeneration and high triglyceride levels with Calebin A derived from orally administering to said mammals effective concentrations of Calebin A to bring about the effect of attenuation of hepatic steatosis in a dose dependant manner. Alternatively, in another most preferred embodiment, the present invention also relates to Calebin A for treating high fat diet (HFD) induced hepatic steatosis in mammals.

Structure (SMILES): COc1cc(/C=C/C(=O)COC(=O)/C=C/c2ccc(O)c(OC)c2)ccc1O [Calebin A]
- percentage adipogenesis inhibition (3T3-L1 cells; 0.5 μg/ml): 32.43%
- percentage adipogenesis inhibition (3T3-L1 cells; 1.0 μg/ml): 38.59%
- percentage adipogenesis inhibition (3T3-L1 cells; 2.0 μg/ml): 35.8%
- percentage inhibition of leptin production (leptin; 0.5 μg/ml): 34.92%
- percentage inhibition of leptin production (leptin; 1.0 μg/ml): 41.04%
- percentage inhibition of leptin production (leptin; 2.0 μg/ml): 39.48%
- percentage inhibition of IL-6 (IL-6; 0.5 μg/ml): 21.31%
- percentage inhibition of IL-6 (IL-6; 1.0 μg/ml): 32.37%
- percentage inhibition of IL-6 (IL-6; 2.0 μg/ml): 31.7%
- % Activity (suppression of IL-1 β expression) (IL-1β; 0.5 μg/ml): 20.38%↓
- IL-1β Concentration (IL-1β; 0.5 μg/ml): 41.24 ± 1.16 pg/mL
- % Activity (suppression of IL-1 β expression) (IL-1β; 1.0 μg/ml): 24.20%↓
- IL-1β Concentration (IL-1β; 1.0 μg/ml): 39.26 ± 2.52 pg/mL
- % Activity (suppression of IL-1 β expression) (IL-1β; 2.0 μg/ml): 28.26%↓
- IL-1β Concentration (IL-1β; 2.0 μg/ml): 37.16 ± 2.11 pg/mL
- expression of IL-1 beta in serum (IL-1 beta): effective in reducing
- HFD induced hepatic triglyceride [1]: attenuated
- inflammatory infiltration in liver ([1]; H&E): attenuated
- hepatocellular ballooning degeneration ([1]; H&E, NAFLD scoring): attenuated
